These results are taken from US5925664A, “Method for treating ocular hypertension and glaucoma” (Sankyo Company, Limited, priority 1994, dated 1999).

The test system of experiment [1] is ocular hypertension model. Briefly: Ocular tension lowering effect in rabbit ocular hypertension model (eye drops). In kind it is in vivo, New Zealand white rabbits. The following applies: 50 μl by dropping; for AUC (area between the ocular tension curves of control group and drug application group): over 2 hours; for Maximum value of the lowered ocular tension: over 2 hours at intervals of 30 minutes. On the procedure:
New Zealand white rabbits each weighing 2 to 3 kg were used.
According to the method reported by Kurihara et al. [Ophthalmologic Pharmacology 4, 62-64, (1990)], an ocular hypertension model was prepared to examine the ocular tension lowering effect of the test compounds. After general anaesthesia with urethane, the ocular tension of the test rabbit was determined by use of a tonometer (Alcon Applanation Pneumatonography).
After a local anaesthetic was applied to the rabbit eye by dropping, 0.1 ml of 5% sodium chloride solution was injected into the vitreous body through a 30-gauge injection needle. At the time, 30 minutes after injection, when ocular hypertension was confirmed, 50 μl of a sample solution was applied by dropping. Then, the ocular tension was determined over 2 hours at intervals of 30 minutes.
The area (AUC) between the ocular tension curve obtained from the control group (without drug application) and that obtained from the drug application group, and the maximum value of the lowered ocular tension were calculated to regard as the indices of ocular tension lowering effect.

For experiment [2] the following is noted: eye application; cited from earlier work.

Consider `CCc1nc2cccc(C(=O)O)c2n1Cc1ccc(-c2ccccc2C(=O)C(=O)O)cc1` [Compound I], for which, in experiment [1] (applied concentration 1.0%), the “AUC (area between the ocular tension curves of control group and drug application group)” value (from here on “AUC”) turned out to be 5.33 mmHg · hr; the “Maximum value of the lowered ocular tension” value is 7.3 mmHg.

Take `CCCCC(=O)N(Cc1ccc(-c2ccccc2-c2nnn[nH]2)cc1)[C@H](C(=O)O)C(C)C` [CGP 48933]: the “ocular tension lowering activity” value in experiment [2] is “showed ocular tension lowering activity”.

For `CCCc1nc(C(C)(C)O)c(C(=O)O)n1Cc1ccc(-c2ccccc2C(=O)C(=O)O)cc1` [Compound H], in experiment [1] (applied concentration 1.0%), the “AUC” value was 5.58 mmHg · hr; the “Maximum value of the lowered ocular tension” value was found to be 8.6 mmHg.

Consider `CCCCC(=O)N(Cc1ccc(-c2ccccc2-c2nnn[nH]2)cc1)CC1(C(=O)O)CCCC1` [CGP 49870], for which the “ocular tension lowering activity” value in experiment [2] is “showed ocular tension lowering activity”.

On to `CCCCc1nc(C(C)(C)O)c(C(=O)O)n1Cc1ccc(-c2ccccc2C(=O)O)cc1` [Compound E], for which, in experiment [1] (applied concentration 1.0%), the “AUC” value came to 4.90 mmHg · hr; the “Maximum value of the lowered ocular tension” value is 7.6 mmHg.

In the case of `CCCc1nc(CC)c(C(=O)O)n1Cc1ccc(-c2ccccc2-c2nn[nH]n2)cc1` [Compound D], in experiment [1] (applied concentration 0.2%), the “AUC” value is on record as 6.21 mmHg · hr; the “Maximum value of the lowered ocular tension” value turned out to be 6.4 mmHg.

For the compound `CCCc1nc(C(C)(C)O)c(C(=O)O)n1Cc1ccc(-c2ccccc2C(=O)O)cc1` [Compound B], in experiment [1] (applied concentration 1.0%), the “AUC” value was 3.21 mmHg · hr; the “Maximum value of the lowered ocular tension” value is listed as 2.6 mmHg.

`CCCCc1nc(Cl)c(CO)n1Cc1ccc(-c2ccccc2-c2nnn[nH]2)cc1` [DUP 753, reference compound]: in experiment [1] (applied concentration 1.0%), the “AUC” value amounted to 0.28 mmHg · hr; the “Maximum value of the lowered ocular tension” value is listed as 1.3 mmHg. In experiment [1] (applied concentration 3.0%), the “AUC” value amounted to 2.38 mmHg · hr; the “Maximum value of the lowered ocular tension” value amounted to 3.5 mmHg.

Consider `CCCc1nc(C(C)O)c(C(=O)O)n1Cc1ccc(-c2ccccc2-c2nn[nH]n2)cc1` (stereo not drawn) [Compound G], for which, in experiment [1] (applied concentration 1.0%), the “AUC” value turned out to be 5.45 mmHg · hr; the “Maximum value of the lowered ocular tension” value was 8.6 mmHg.

With `CCCc1nc(C(C)C)c(C(=O)O)n1Cc1ccc(-c2ccccc2-c2nn[nH]n2)cc1` [Compound C], in experiment [1] (applied concentration 1.0%), the “AUC” value is 3.98 mmHg · hr; the “Maximum value of the lowered ocular tension” value is 2.7 mmHg.

For the compound `CCCc1nc(C(C)(C)O)c(C(=O)O)n1Cc1ccc(-c2ccccc2-c2nn[nH]n2)cc1` [Compound A], in experiment [1] (applied concentration 1.0%), the “AUC” value came to 11.18 mmHg · hr; the “Maximum value of the lowered ocular tension” value stood at 9.8 mmHg.

As to `CCCc1nc(C(C)(C)O)c(C(=O)O)n1Cc1ccc(-c2nn[nH]n2)cc1` [Compound F], in experiment [1] (applied concentration 1.0%), the “AUC” value is given as 4.93 mmHg · hr; the “Maximum value of the lowered ocular tension” value stood at 4.7 mmHg.
